Measurements as given in patent publication US7932262B2 (Novartis AG, priority 2006, dated 2011).
Like-named read-outs stand apart in the source and are kept apart here.

What was measured:
PDK1 kinase = target: T1, PDK1 kinase (Homo sapiens, UniProt O15530); assay: PDK1 Kinase Alpha Screen Assay; format: biochemical
T1 sequence (O15530 1-556): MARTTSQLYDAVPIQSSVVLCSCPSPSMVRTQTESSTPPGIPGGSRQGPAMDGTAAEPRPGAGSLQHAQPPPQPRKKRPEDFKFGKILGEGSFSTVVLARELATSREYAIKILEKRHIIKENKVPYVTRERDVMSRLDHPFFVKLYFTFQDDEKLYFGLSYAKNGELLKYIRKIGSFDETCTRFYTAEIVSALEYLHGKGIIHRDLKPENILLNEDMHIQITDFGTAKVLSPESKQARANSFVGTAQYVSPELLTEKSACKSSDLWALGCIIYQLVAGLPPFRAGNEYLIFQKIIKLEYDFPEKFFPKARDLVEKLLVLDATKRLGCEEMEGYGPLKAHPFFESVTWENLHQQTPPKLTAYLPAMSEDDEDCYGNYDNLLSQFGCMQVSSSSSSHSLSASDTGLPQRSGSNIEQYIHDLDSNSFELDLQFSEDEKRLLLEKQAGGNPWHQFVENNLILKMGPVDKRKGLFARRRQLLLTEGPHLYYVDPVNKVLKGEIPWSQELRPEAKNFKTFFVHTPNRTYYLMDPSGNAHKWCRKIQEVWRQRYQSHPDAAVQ
Summary of the method: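 Test compounds were incubated with PDK1 kinase, 10 uM ATP and 50 nM biotinylated peptide substrate for 3-18 hours at pH 7.5 with 2.5% DMSO. Peptide phosphorylation was then detected by AlphaScreen proximity luminescence using a phospho-(Ser/Thr) PKA substrate antibody.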

PC-3 cells = assay: Cell Proliferation Assay (Cell Titer Glo), PC-3 cell line; format: cell-based; details: Homo sapiens
Summary of the method: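 PC-3 cells, 1000 cells/well, left to adhere 3-5 h, then exposed for 3 days at 37° C to compounds as 1:3 serial dilutions from 500× DMSO stocks diluted in growth medium. Medium then replaced with fresh medium and viability read by Cell Titer Glo luminescence.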

[1] = PC-3, PC3 cells, read-out: CPEC50 PC3
[2] = PDK1 Kinase Alpha Screen Assay, read-out: PDK1 IC50
[3] = PC-3, Cell Proliferation Assay, PC3, read-out: CPEC50 PC3

Row | SMILES | IC50 (PDK1 kinase; read-out: PDK1 IC50) [µM] | EC50 (PC-3 cells; [1]) [µM] | IC50 (PDK1 kinase; [2]) [µM] | EC50 (PC-3 cells; [3]) [µM] | other results
1 | CN1CCN(c2ccc(-c3cccc4cnc(Nc5ccc(S(=O)(=O)N6CCOCC6)cc5)nc34)cn2)CC1 [Compound 1029, 8-(6-(4-methylpiperazin-1-yl)pyridin-3-yl)-N-(4-(morpholinosulfonyl)phenyl)quinazolin-2-amine] | < 5 | < 5 |  |  | 
2 | C#Cc1cc(OC2CCNCC2)c2nc(Nc3ccc(C(=O)N4CCOCC4)cc3)ncc2c1Cl [Compound 1032, (4-(5-chloro-6-ethynyl-8-(piperidin-4-yloxy)quinazolin-2-ylamino)phenyl)(morpholino)methanone] |  | < 5 |  |  | IC50 (PDK1 kinase; head of the second part of Table 4: BV11261, read-out: PDK1 BV11261): < 5 µM
3 | CNC(=O)Cc1ccc(Nc2ncc3cccc(-c4ccc(NCCN5CCCC5)nc4)c3n2)cc1 [Compound 400, N-methyl-2-(4-(8-(6-(2-(pyrrolidin-1-yl)ethylamino)pyridin-3-yl)quinazolin-2-ylamino)phenyl)acetamide] |  |  | < 5 | < 5 | 
4 | CN1CCN(c2ccc(-c3cccc4cnc(Nc5ccc(N6CCOCC6)nc5)nc34)cn2)CC1 [Compound 423, 8-(6-(4-methylpiperazin-1-yl)pyridin-3-yl)-N-(6-morpholinopyridin-3-yl)quinazolin-2-amine] |  |  | < 5 | < 5 | 
5 | C#Cc1cc(OC2CN3CCC2CC3)c2nc(Nc3ccc(S(N)(=O)=O)cc3)ncc2c1 (stereo not drawn) [Compound 635, 4-(6-ethynyl-8-(quinuclidin-3-yloxy)quinazolin-2-ylamino)benzenesulfonamide] |  |  | < 5 | < 5 | 
6 | c1cc(-c2ccc(NCCN3CCCC3)nc2)c2nc(Nc3ccc(N4CCOCC4)cc3)ncc2c1 [Compound 996, N-(4-morpholinophenyl)-8-(6-(2-(pyrrolidin-1-yl)ethylamino)pyridin-3-yl)quinazolin-2-amine] | < 5 | < 5 |  |  | 
7 | CS(=O)(=O)c1ccc(Nc2ncc3cccc(-c4ccc(NCCN5CCCC5)nc4)c3n2)cc1 [Compound 1028, N-(4-(methylsulfonyl)phenyl)-8-(6-(2-(pyrrolidin-1-yl)ethylamino)pyridin-3-yl)quinazolin-2-amine] | < 5 | 5 to 10 |  |  | 
8 | COc1cccc(Nc2ncc3c(Cl)ccc(OC4CCNCC4)c3n2)c1 [Compound 380, 5-chloro-N-(3-methoxyphenyl)-8-(piperidin-4-yloxy)quinazolin-2-amine] |  |  | < 5 | < 5 | 
9 | COc1ccc(Nc2ncc3cccc(OC4CCN(C(C)C)CC4)c3n2)cc1 [Compound 535, 8-(1-isopropylpiperidin-4-yloxy)-N-(4-methoxyphenyl)quinazolin-2-amine] |  |  | < 5 | 5 to 10 | 
10 | CC(=O)Nc1ccc(Nc2ncc3cccc(-c4ccc(NCCN5CCCC5)nc4)c3n2)cc1Cl [Compound 1024, N-(2-chloro-4-(8-(6-(2-(pyrrolidin-1-yl)ethylamino)pyridin-3-yl)quinazolin-2-ylamino)phenyl)acetamide] | < 5 | < 5 |  |  | 
11 | NC1CCN(c2ccc(Cl)c3cnc(Nc4ccc(C(=O)N5CCOCC5)cc4)nc23)CC1 [Compound 694, (4-(8-(4-aminopiperidin-1-yl)-5-chloroquinazolin-2-ylamino)phenyl)(morpholino)methanone] |  |  | < 5 | < 5 | 
12 | CN(C)[C@H]1CCN(c2ccc(-c3cccc4cnc(Nc5ccc(S(N)(=O)=O)cc5)nc34)cn2)C1 [Compound 952, (S)-4-(8-(6-(3-(dimethylamino)pyrrolidin-1-yl)pyridin-3-yl)quinazolin-2-ylamino)benzenesulfonamide] | < 5 | < 5 |  |  | 
13 | CC(C)Cn1cc(-c2ccc3cnc(Nc4ccc(S(=O)(=O)NCCN5CCCC5)cc4)nc3c2)cn1 [Compound 713, 4-(7-(1-isobutyl-1H-pyrazol-4-yl)quinazolin-2-ylamino)-N-(2-(pyrrolidin-1-yl)ethyl)benzenesulfonamide] |  |  | < 5 |  | EC50 (PC-3 cells; PC-3, Cell Proliferation Assay, PC3 cells, read-out: CPEC50 PC3): < 5 µM
14 | Nc1ccc(S(=O)(=O)N(CCN2CCCC2)c2ncc3cccc(OC4CCNCC4)c3n2)cc1 [Compound 422, 4-amino-N-(8-(piperidin-4-yloxy)quinazolin-2-yl)-N-(2-(pyrrolidin-1-yl)ethyl)benzenesulfonamide] |  |  | 5 to 10 | 5 to 10 | 
15 | CC(C)NS(=O)(=O)c1ccc(Nc2ncc3c(Br)ccc(OC4CCN(C(C)C)CC4)c3n2)cc1 [Compound 357, 4-(5-bromo-8-(1-isopropylpiperidin-4-yloxy)quinazolin-2-ylamino)-N-isopropylbenzenesulfonamide] |  |  | < 5 | < 5 | 
16 | CC(C)N1CCC(Oc2cccc3cnc(Nc4ccc(C#N)cc4)nc23)CC1 [Compound 536, 4-(8-(1-isopropylpiperidin-4-yloxy)quinazolin-2-ylamino)benzonitrile] |  |  | < 5 | < 5 | 
17 | CC(C)N1CCC(Oc2cccc3cnc(Nc4cccc(F)c4)nc23)CC1 [Compound 527, N-(3-fluorophenyl)-8-(1-isopropylpiperidin-4-yloxy)quinazolin-2-amine] |  |  | < 5 | < 5 | 
18 | CC(C)N1CCC(Oc2ccc3cnc(Nc4ccc(N)c(Cl)c4)nc3c2)CC1 [Compound 62, 2-Chloro-N*4*-[7-(1-isopropyl-piperidin-4-yloxy)-quinazolin-2-yl] benzene-1,4-diamine] | < 5 |  |  |  | EC50 (PC-3 cells; PC-3, 72 h, PC-3 cells, 3 days incubation, read-out: CP EC50 PC3): 5 to 10 µM
19 | CN1CCN(c2cccc(Nc3ncc4ccc(OC5CCNCC5)cc4n3)c2)CC1 [Compound 581, N-(3-(4-methylpiperazin-1-yl)phenyl)-7-(piperidin-4-yloxy)quinazolin-2-amine] |  |  | < 5 | < 5 | 
20 | FC(F)(F)c1cc(Br)cc(Nc2ncc3cccc(OC4CCNCC4)c3n2)c1 [Compound 452, N-(3-bromo-5-(trifluoromethyl)phenyl)-8-(piperidin-4-yloxy)quinazolin-2-amine] |  |  | < 5 | < 5 | 
21 | Clc1cc(Nc2ncc3cccc(OC4CCNCC4)c3n2)ccc1N1CCOCC1 [Compound 471, N-(3-chloro-4-morpholinophenyl)-8-(piperidin-4-yloxy)quinazolin-2-amine] |  |  | < 5 | < 5 | 
22 | O=C(c1ccc(Nc2ncc3ccc(NC4CCNCC4)cc3n2)cc1)N1CCOCC1 [Compound 347, morpholino(4-(7-(piperidin-4-ylamino)quinazolin-2-ylamino)phenyl)methanone] |  |  | < 5 | < 5 | 
23 | CCN(CC)CCNc1ccc(-c2cccc3cnc(Nc4ccc(S(N)(=O)=O)cc4)nc23)cn1 [Compound 954, 4-(8-(6-(2-(diethylamino)ethylamino)pyridin-3-yl)quinazolin-2-ylamino)benzenesulfonamide] | < 5 | < 5 |  |  | 
24 | c1cc(Nc2ncc3ccc(OC4CCNCC4)cc3n2)cc(N2CCOCC2)c1 [Compound 572, N-(3-morpholinophenyl)-7-(piperidin-4-yloxy)quinazolin-2-amine] |  |  | < 5 | < 5 | 
25 | NS(=O)(=O)c1ccc(Nc2ncc3cccc(-c4cnc(NCCN5CCCC5)c(C(F)(F)F)c4)c3n2)cc1 [Compound 404, 4-(8-(6-(2-(pyrrolidin-1-yl)ethylamino)-5-(trifluoromethyl)pyridin-3-yl)quinazolin-2-ylamino)benzenesulfonamide] |  |  | < 5 | < 5 | 
26 | CN1CCN(c2ccc(-c3cccc4cnc(Nc5ccc(N6CCOCC6)c(F)c5)nc34)cc2)CC1 [Compound 459, N-(3-fluoro-4-morpholinophenyl)-8-(4-(4-methylpiperazin-1-yl)phenyl)quinazolin-2-amine] |  |  | < 5 | < 5 | 
27 | Cc1cc(Nc2ncc3ccc(O)c(C4CCN(C(C)C)CC4)c3n2)ccc1F [Compound 1030, 2-(4-fluoro-3-methylphenylamino)-8-(1-isopropylpipenidin-4-yl)quinazolin-7-ol] | < 5 | 5 to 10 |  |  | 
28 | Cc1ccc(OC2CCNCC2)c2nc(Nc3ccc(N4CCOCC4)c(Cl)c3)ncc12 [Compound 362, N-(3-chloro-4-morpholinophenyl)-5-methyl-8-(piperidin-4-yloxy)quinazolin-2-amine] |  |  | < 5 | < 5 | 
29 | O=S(=O)(c1ccc(Nc2ncc3ccc(OC4CCN(CC(F)F)CC4)cc3n2)cc1)N1CCOCC1 [Compound 334, 7-(1-(2,2-difluoroethyl)piperidin-4-yloxy)-N-(4-(morpholinosulfonyl)phenyl)quinazolin-2-amine] |  |  | < 5 | 5 to 10 | 
30 | CN(C)[C@@H]1CCN(C(=O)c2cncc(-c3cccc4cnc(Nc5ccc(S(N)(=O)=O)cc5)nc34)c2)C1 [Compound 976, (R)-4-(8-(5-(3-(dimethylamino)pyrrolidine-1-carbonyl)pyridin-3-yl)quinazolin-2-ylamino)benzenesulfonamide] | < 5 | 5 to 10 |  |  | 
